From paper PMC6339703, “Visualizing the Distribution of Matrix Metalloproteinases in Ischemic Brain Using In Vivo ^19F-Magnetic Resonance Spectroscopic Imaging” (Contrast Media & Molecular Imaging, 2019)

What was measured:
MMP9 = MMP9 (Homo sapiens, UniProt P14780); assay: in vitro MMP inhibition assay (Eurofins Panlabs); format: biochemical
MMP2 = biological target: T1, MMP2 (Homo sapiens, UniProt P08253); assay: in vitro MMP inhibition assay (Eurofins Panlabs); format: biochemical
T1 sequence (P08253 110-660): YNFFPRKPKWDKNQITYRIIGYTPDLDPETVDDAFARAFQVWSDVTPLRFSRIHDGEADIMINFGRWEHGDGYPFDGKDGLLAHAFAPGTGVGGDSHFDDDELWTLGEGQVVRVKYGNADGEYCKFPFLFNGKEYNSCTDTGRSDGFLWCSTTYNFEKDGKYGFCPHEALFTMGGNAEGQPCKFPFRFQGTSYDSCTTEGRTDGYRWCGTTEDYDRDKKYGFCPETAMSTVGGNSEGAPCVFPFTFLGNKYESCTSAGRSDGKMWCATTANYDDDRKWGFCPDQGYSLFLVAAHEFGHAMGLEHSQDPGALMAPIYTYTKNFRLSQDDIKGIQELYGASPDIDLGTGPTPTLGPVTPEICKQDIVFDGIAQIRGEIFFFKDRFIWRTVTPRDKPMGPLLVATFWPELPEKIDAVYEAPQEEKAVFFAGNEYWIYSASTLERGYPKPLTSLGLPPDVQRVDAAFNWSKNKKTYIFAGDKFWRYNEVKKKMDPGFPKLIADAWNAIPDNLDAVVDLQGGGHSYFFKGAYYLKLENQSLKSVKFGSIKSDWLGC

Sequence of MMP9 (P14780 107-707): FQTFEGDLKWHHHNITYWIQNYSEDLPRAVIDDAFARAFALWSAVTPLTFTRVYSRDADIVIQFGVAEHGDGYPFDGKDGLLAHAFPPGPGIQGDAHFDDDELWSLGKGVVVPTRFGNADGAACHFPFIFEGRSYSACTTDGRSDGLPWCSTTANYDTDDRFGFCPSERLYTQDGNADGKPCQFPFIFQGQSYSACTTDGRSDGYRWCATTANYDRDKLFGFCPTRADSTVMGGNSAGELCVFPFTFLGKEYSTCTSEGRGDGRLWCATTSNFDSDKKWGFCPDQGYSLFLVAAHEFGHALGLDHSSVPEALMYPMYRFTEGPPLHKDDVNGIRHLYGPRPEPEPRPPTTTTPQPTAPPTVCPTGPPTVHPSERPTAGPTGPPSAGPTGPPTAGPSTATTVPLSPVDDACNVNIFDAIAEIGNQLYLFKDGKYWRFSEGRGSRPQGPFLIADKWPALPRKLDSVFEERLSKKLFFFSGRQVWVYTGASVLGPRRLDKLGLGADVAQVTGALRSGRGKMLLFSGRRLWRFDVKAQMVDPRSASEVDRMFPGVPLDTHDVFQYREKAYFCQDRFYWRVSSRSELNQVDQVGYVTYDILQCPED

- in vitro MMP inhibition assay (Eurofins Panlabs) (MMP9): completely inhibit
- in vitro MMP inhibition assay (Eurofins Panlabs) (MMP2): completely inhibit
Structure (SMILES): CNC(=O)C(Cc1c[nH]c2ccc(F)cc12)NC(=O)C(CC(=O)NO)CC(C)C (mixture of isomers) [TGF-019]
